Where two headings read alike, the source gives them in different places.
Molecular target: human DP2 (Homo sapiens (Human), UniProt Q9Y5Y4)
Experiment: DP-2 Binding Inhibition Assay (3H-PGD2 binding to membranes of K562 cells expressing DP2)
Conditions: for EC50: inhibition of 3H-PGD2 binding
Experimental: DP-2 Binding Inhibition Assay
The coding sequence of human DP2 was introduced into the human Leukemic cell line K562 by electroporation and stable clones expressing DP2 were obtained by limiting dilution followed by cell surface staining with a rat monoclonal antibody specific for human DP2. Membranes were prepared from one of these DP2 expressing clones and used to determine the ability of compounds of the present invention to inhibit binding of prostaglandin D2 (PGD2) to its receptor DP2 in the presence of one or more of the following serum protein concentrations, 0.1% BSA, 1% HSA or 4% HSA, by the following procedure. Membranes (1.25 μg/well for 0.1% BSA and 6 μg/well for 1% or 4% HSA) were mixed with ^3H-labeled PGD2 and various concentrations of test compounds in 150 μL of binding buffer (50 mM Tris-HCl, pH 7.4, 40 mM MgCl2, 0.1% bovine serum albumin, 0.1% NaN3) in 96-well U-bottom polypropylene plates. After incubation for 60 minutes at room temperature, the assay was transferred to a filtration plate (#MAFB; Millipore Corporation, Bedford, Mass.), and washed three times with binding buffer. Radioactivity was measured by a scintillation counter (TopCount; PerkinElmer Life Sciences, Boston, Mass.). Nonspecific binding was determined by incubations in the presence of 1 μM unlabeled PGD2 or 5 μM of a known DP2 antagonist. EC50 values for inhibition of binding were determined for each compound tested from the inflexion point of a standard 4-parameter logistical curve fitted to the values obtained.

[1] = read-out: EC50 (nM) 4% HSA, 4% HSA

Chain of human DP2 (Q9Y5Y4 whole entry): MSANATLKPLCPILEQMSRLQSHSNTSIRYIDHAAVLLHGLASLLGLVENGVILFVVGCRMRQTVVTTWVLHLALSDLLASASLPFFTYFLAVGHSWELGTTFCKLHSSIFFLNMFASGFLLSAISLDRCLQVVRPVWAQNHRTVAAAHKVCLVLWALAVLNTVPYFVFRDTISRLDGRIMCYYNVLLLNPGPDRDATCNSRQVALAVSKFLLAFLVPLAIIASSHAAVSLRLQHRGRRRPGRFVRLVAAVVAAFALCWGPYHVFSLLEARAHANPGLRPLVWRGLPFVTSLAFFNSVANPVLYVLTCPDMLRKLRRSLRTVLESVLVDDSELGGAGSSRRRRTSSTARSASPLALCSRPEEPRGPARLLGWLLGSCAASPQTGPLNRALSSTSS

Row | EC50 [1] [nM] | Compound | further results
1 | 4320 | O=C(NC1CN(c2cccc(C(F)(F)F)c2)C1)c1ccc(Oc2cc3c(cc2Cl)C(C(=O)O)CCO3)cc1 (stereo not shown) [Example 121, Sodium 6-chloro-7-(4-(1-(3-(trifluoromethyl)phenyl)azetidin-3-ylcarbamoyl)phenoxy)chroman-4-carboxylate] | –
2 | 225 | O=C(NCC1CCc2cc(Cl)ccc21)c1ccc(Oc2cc3c(cc2Cl)C(C(=O)O)CCO3)cc1 (stereo not shown) [Example 231, 6-chloro-7-(4-((5-chloro-2,3-dihydro-1H-inden-1-yl)methylcarbamoyl)phenoxy) chroman-4-carboxylic acid] | –
3 | 192 | O=C(NCCc1ccccc1Br)c1ccc(Oc2cc3c(cc2Cl)C(C(=O)O)CCO3)cc1 (stereo not shown) [Example 91, Sodium 7-(4-(2-bromophenethylcarbamoyl)phenoxy)-6-chlorochroman-4-carboxylate] | –
4 | 373 | COc1cc(Cl)c(CCNC(=O)c2ccc(Oc3cc4c(cc3Cl)C(C(=O)O)CCO4)cc2)c(Cl)c1 (stereo not shown) [Example 224, 6-chloro-7-(4-(2,6-dichloro-4-methoxyphenethylcarbamoyl)phenoxy)chroman-4-carboxylic acid] | –
5 | 824 | O=C(NCC(O)c1ccc(Cl)cc1)c1ccc(Oc2cc3c(cc2Cl)C(C(=O)O)CCO3)cc1 (stereo not shown) [Example 184, Sodium 6-chloro-7-(4-(2-(4-chlorophenyl)-2-hydroxyethylcarbamoyl)phenoxy)chroman-4-carboxylate] | –
6 | 282 | CSc1cccc(C2CCC(NC(=O)c3ccc(Oc4cc5c(cc4Cl)C(C(=O)O)CCO5)cc3)C2)c1 (stereo not shown) [Example 172, Sodium 6-chloro-7-(4-(3-(3-(methylthio)phenyl)cyclopentylcarbamoyl)phenoxy)chroman-4-carboxylate] | –
7 | 42.2 | O=C(NCCc1ccc(Cl)cc1Cl)c1ccc(Oc2c(C3CC3)cc3c(c2C2CC2)OCCC3C(=O)O)cc1 (stereo not shown) [Example 40, Sodium 6,8-dicyclopropyl-7-(4-(2,4-dichlorophenethylcarbamoyl)phenoxy)chroman-4-carboxylate] | –
8 | 305 | COc1ccccc1CCNC(=O)c1ccc(Oc2cc3c(cc2Cl)C(C(=O)O)CCO3)cc1 (stereo not shown) [Example 63, Sodium 6-chloro-7-(4-(2-methoxyphenethylcarbamoyl)phenoxy)chroman-4-carboxylate] | –
9 | – | N#Cc1cc2c(cc1Oc1ccc(C(=O)NC3COc4ccccc4C3)cc1)OCCC2C(=O)O (stereo not shown) [Example 52, 7-(4-(chroman-3-ylcarbamoyl)phenoxy)-6-cyanochroman-4-carboxylic acid] | EC50 (read-out: EC50 (Nm) 1% HSA, 1% HSA): 90.8 nM
10 | 968 | Cc1cc(Oc2cc3c(cc2Cl)C(C(=O)O)CCO3)ccc1C(=O)NCCc1ccc(Cl)cc1Cl (stereo not shown) [Example 183, Sodium 6-chloro-7-(4-(2,4-dichlorophenethylcarbamoyl)-3-methylphenoxy)chroman-4-carboxylate] | –
11 | 259 | O=C(NC1CCN(c2cccc(C(F)(F)F)c2)CC1)c1ccc(Oc2cc3c(cc2Cl)C(C(=O)O)CCO3)cc1 (stereo not shown) [Example 123, Sodium 6-chloro-7-(4-(1-(3-(trifluoromethyl)phenyl)piperidin-4-ylcarbamoyl)phenoxy)chroman-4-carboxylate] | –
12 | 67.5 | CSc1cc(Cl)ccc1CCNC(=O)c1ccc(Oc2cc3c(cc2Cl)C(C(=O)O)CCO3)cc1 (stereo not shown) [Example 229, 6-chloro-7-(4-(4-chloro-2-(methylthio)phenethylcarbamoyl)phenoxy)chroman-4-carboxylic acid] | –
13 | 619 | COc1ccc(CCNC(=O)c2ccc(Oc3cc4c(cc3Cl)C(C(=O)O)CCO4)cc2)c(Cl)c1 (stereo not shown) [Example 100, Sodium 6-chloro-7-(4-(2-chloro-4-methoxyphenethylcarbamoyl)phenoxy)chroman-4-carboxylate] | –
14 | 46.5 | O=C(NCCc1ccc(C(F)(F)F)cc1C1CC1)c1ccc(Oc2cc3c(cc2Cl)C(C(=O)O)CCO3)cc1 (stereo not shown) [Example 232, 6-chloro-7-(4-(2-cyclopropyl-4-(trifluoromethyl)phenethylcarbamoyl)phenoxy) chroman-4-carboxylic acid] | –
15 | 146 | COc1cccc(CCNC(=O)c2ccc(Oc3cc4c(cc3Cl)C(C(=O)O)CCO4)cc2)c1OC (stereo not shown) [Example 89, Sodium 6-chloro-7-(4-(2,3-dimethoxyphenethylcarbamoyl)phenoxy)chroman-4-carboxylate] | –
16 | 689 | O=C(NCC(O)c1ccc(Cl)cc1Cl)c1ccc(Oc2cc3c(cc2Cl)C(C(=O)O)CCO3)cc1 (stereo not shown) [Example 197, sodium 6-chloro-7-(4-(2-(2,4-dichlorophenyl)-2-hydroxyethylcarbamoyl)phenoxy)chroman-4-carboxylate] | –

Row | EC50 [1] [nM] | Compound | further results
17 | – | O=C(NCCc1ccc(Cl)cc1Cl)c1ccc(Oc2cc3c(cc2Cl)C(C(=O)O)CCO3)cc1 (single isomer, unassigned) [Example 106 Enantiomer 1, 6-chloro-7-(4-(2,4-dichlorophenethylcarbamoyl)phenoxy)chroman-4-carboxylic acid] | EC50 (EC50 (nM) 4% HSA, 4% HSA): > 5000 nM; relative activity of the enantiomers in the DP2 binding inhibition assay (assay described in Example A): less active than the sodium salt of Enantiomer 2
18 | 158 | O=C(NCCc1ccc(-c2ccccc2)cc1)c1ccc(Oc2cc3c(cc2Cl)C(C(=O)O)CCO3)cc1 (stereo not shown) [Example 59] | –
19 | 995 | Cc1nccc(-c2cccc(NC(=O)c3ccc(Oc4cc5c(cc4C#N)C(C(=O)O)CCO5)cc3)c2)n1 (stereo not shown) [Example 70, 6-Cyano-7-(4-(3-(2-methylpyrimidin-4-yl)phenylcarbamoyl)phenoxy)chroman-4-carboxylic acid] | –
20 | 246 | CSc1ccccc1CCNC(=O)c1ccc(Oc2cc3c(cc2Cl)C(C(=O)O)CCO3)cc1 (stereo not shown) [Example 117, Sodium 6-chloro-7-(4-(2-(methylthio)phenethylcarbamoyl)phenoxy)chroman-4-carboxylate] | –
21 | 341 | O=C(NCCc1cccc(Cl)c1)c1ccc(Oc2cc3c(cc2Cl)C(C(=O)O)CCO3)cc1 (stereo not shown) [Example 150, Sodium 6-chloro-7-(4-(3-chlorophenethylcarbamoyl)phenoxy)chroman-4-carboxylate] | –
22 | 153 | O=C(NCCc1ccccc1OC(F)(F)F)c1ccc(Oc2cc3c(cc2Cl)C(C(=O)O)CCO3)cc1 (stereo not shown) [Example 64, Sodium 6-chloro-7-(4-(2-(trifluoromethoxy)phenethylcarbamoyl)phenoxy)chroman-4-carboxylate] | –
23 | 1650 | O=C(NC1CCCC(c2ccccc2)C1)c1ccc(Oc2cc3c(cc2Cl)C(C(=O)O)CCO3)cc1 (stereo not shown) [Example 158, 6-Chloro-7-(4-(3-phenylcyclohexylcarbamoyl)phenoxy)chroman-4-carboxylic acid] | –
24 | 138 | CCOc1cc(Cl)c(Cl)cc1CCNC(=O)c1ccc(Oc2cc3c(cc2Cl)C(C(=O)O)CCO3)cc1 (stereo not shown) [Example 201, sodium 6-chloro-7-(4-(4,5-dichloro-2-ethoxyphenethylcarbamoyl)phenoxy)chroman-4-carboxylate] | –
25 | 91 | CCOc1ccccc1CCNC(=O)c1ccc(Oc2cc3c(cc2Cl)C(C(=O)O)CCO3)cc1 (stereo not shown) [Example 114, Sodium 6-chloro-7-(4-(2-ethoxyphenethylcarbamoyl)phenoxy)chroman-4-carboxylate] | –
26 | 204 | Cc1cccc(C2CCC(NC(=O)c3ccc(Oc4cc5c(cc4Cl)C(C(=O)O)CCO5)cc3)C2)c1 (stereo not shown) [Example 169, Sodium 6-chloro-7-(4-(3-(3-methylphenyl)cyclopentylcarbamoyl)phenoxy)chroman-4-carboxylate] | –
27 | 169 | Cc1ccc(CCNC(=O)c2ccc(Oc3cc4c(cc3Cl)C(C(=O)O)CCO4)cc2)c(C)c1 (stereo not shown) [Example 21, Sodium 6-chloro-7-(4-(2,4-dimethylphenethylcarbamoyl)phenoxy)chroman-4-carboxylate] | –
28 | 2440 | O=C(NCCOc1ccccc1Cl)c1ccc(Oc2cc3c(cc2Cl)C(C(=O)O)CCO3)cc1 (stereo not shown) [Example 115, Sodium 6-chloro-7-(4-(2-(2-chlorophenoxyl)ethylcarbamoyl)phenoxy)chroman-4-carboxylate] | –
29 | 2380 | O=C(NCCSc1ccc(Cl)cc1)c1ccc(Oc2cc3c(cc2Cl)C(C(=O)O)CCO3)cc1 (stereo not shown) [Example 113, Sodium 6-chloro-7-(4-(2-(4-chlorophenylthio)ethylcarbamoyl)phenoxy)chroman-4-carboxylate] | –
30 | 434 | N#Cc1cc2c(cc1Oc1ccc(C(=O)NCCc3ccc(-c4ccccc4)cc3)cc1)OCCC2C(=O)O (stereo not shown) [Example 58, 7-(4-(2-(Biphenyl-4-yl)ethylcarbamoyl)phenoxy)-6-cyanochroman-4-carboxylic acid] | –
31 | 1730 | O=C(NC(CO)Cc1ccc(Cl)cc1)c1ccc(Oc2cc3c(cc2Cl)C(C(=O)O)CCO3)cc1 (stereo not shown) [Example 178, Sodium 6-chloro-7-(4-(1-(4-chlorophenyl)-3-hydroxypropan-2-ylcarbamoyl)phenoxy)chroman-4-carboxylate] | –

Row | Compound | EC50 [1] [nM] | further results
32 | O=C(NC1CCC(c2ccc(Cl)cc2)CC1)c1ccc(Oc2cc3c(cc2Cl)C(C(=O)O)CCO3)cc1 (stereo not shown) [Example 176, Sodium 6-chloro-7-(4-(4-(4-chlorophenyl)cyclohexylcarbamoyl)phenoxy)chroman-4-carboxylate] | 339 | –
33 | COc1cc(C2CC2)ccc1CCNC(=O)c1ccc(Oc2cc3c(cc2Cl)[C@@H](C(=O)O)CCO3)cc1 (single isomer, unassigned; enantiomer 2) [235 Enantiomer 2] | 17 | –
